Source: ChEMBL document CHEMBL5550154, “Novel biaryloxazolidinone derivatives with broad-spectrum antibacterial activity, favorable drug-like profiles and in vivo efficacy against linezolid-resistant Staphylococcusaureus” (Eur J Med Chem, 2024)
Converted amounts (≈) assume the structure as drawn. The source made the active and inactive calls. No cut-off for these calls is given here.

Assays:
[1] = Plasma protein binding in monkey incubated for 6 hrs by LC-MS/MS analysis; type: ADME, cell-free, Macaca mulatta; conditions: rhesus monkey, read-out: PPB (converted)
Staphylococcus aureus [2] = experiment: Antibacterial activity against methicillin-resistant Staphylococcus aureus assessed as inhibition of bacterial growth incubated for 16 to 20 hrs by CLSI based broth liquid microdilution method; type: functional; conditions: time 16-20 hrs
[3] = Cmax in Sprague-Dawley rat at 10 mg/kg, IG measured upto 24 hrs by LC-MS analysis; type: ADME, organism-based; conditions: in vivo, po
[4] = Microsomal stability in monkey liver microsomes assessed as parent compound remaining pretreated with compound upto 60 mins followed by NADPH addition and measured after 60 mins by LC/MS analysis; type: ADME, Macaca mulatta, Microsome; conditions: rhesus monkey, time < 120 min, read-out: Stability
[5] = Plasma protein binding in human incubated for 6 hrs by LC-MS/MS analysis; type: ADME, cell-free; conditions: read-out: PPB (converted)
Staphylococcus aureus [6] = experiment: Antibacterial activity against methicillin-sensitive Staphylococcus aureus assessed as inhibition of bacterial growth incubated for 16 to 20 hrs by CLSI based broth liquid microdilution method; type: functional; conditions: time 16-20 hrs
[7] = AUC (0 to t) in Sprague-Dawley rat at 10 mg/kg, IG measured upto 24 hrs by LC-MS analysis; type: ADME, organism-based; conditions: in vivo, po
[8] = Stability in rat plasma assessed as parent compound remaining at 37 degreeC measured upto 60 mins by HPLC analysis; type: ADME, cell-free; conditions: read-out: Stability
Cytochrome P450 3A4 = Cytochrome P450 3A4 (Homo sapiens, UniProt P08684); experiment: Inhibition of CYP3A4 in human liver microsomes […] preincubated with compound for 5 mins followed by substrate addition and measured after 120 mins in presence of NADPH by LC-MS/MS analysis; type: ADME, Microsome
Sequence of Cytochrome P450 3A4 (P08684 whole entry): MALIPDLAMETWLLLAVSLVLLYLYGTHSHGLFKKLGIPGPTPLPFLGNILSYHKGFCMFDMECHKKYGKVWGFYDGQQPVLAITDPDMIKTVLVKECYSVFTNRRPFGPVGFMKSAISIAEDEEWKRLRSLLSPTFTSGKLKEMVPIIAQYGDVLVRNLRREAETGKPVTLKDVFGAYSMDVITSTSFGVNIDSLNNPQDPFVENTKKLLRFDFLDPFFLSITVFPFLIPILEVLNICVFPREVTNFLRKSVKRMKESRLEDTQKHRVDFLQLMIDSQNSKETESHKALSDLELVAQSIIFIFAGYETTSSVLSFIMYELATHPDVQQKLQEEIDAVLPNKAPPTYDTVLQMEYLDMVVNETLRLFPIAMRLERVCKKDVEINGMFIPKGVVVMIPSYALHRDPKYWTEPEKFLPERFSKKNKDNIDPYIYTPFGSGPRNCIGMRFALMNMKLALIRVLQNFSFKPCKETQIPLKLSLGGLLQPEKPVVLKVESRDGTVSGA

[9] = Stability in mouse plasma assessed as parent compound remaining at 25 degreeC measured upto 60 mins by HPLC analysis; type: ADME, cell-free; conditions: for Stability: 1 h; for remaining at 1 h: read-out: Stability
[10] = Tmax in Sprague-Dawley rat at 10 mg/kg, IG measured upto 24 hrs by LC-MS analysis; type: ADME, organism-based; conditions: in vivo, po
[11] = Microsomal stability in rat liver microsomes assessed as intrinsic clearance pretreated with compound upto 60 mins followed by NADPH addition and measured after 60 mins by LC/MS analysis; type: ADME, Microsome; conditions: time < 120 min, read-out: CLH
[12] = Cytotoxicity against human HepG2 cells incubated for 48 hrs by MTT assay; type: toxicity, cell-based
[13] = Microsomal stability in monkey liver microsomes assessed as intrinsic clearance pretreated with compound upto 60 mins followed by NADPH addition and measured after 60 mins by LC/MS analysis; type: ADME, Macaca mulatta, Microsome; conditions: rhesus monkey, time < 120 min, read-out: CLH
[14] = Apparent volume of distribution in Sprague-Dawley rat at 1 mg/kg, iv measured upto 24 hrs by LC-MS analysis; type: ADME, organism-based; conditions: in vivo, read-out: Vz
Enterococcus faecalis = experiment: Antibacterial activity against linezolid-resistant Enterococcus faecalis assessed as inhibition of bacterial growth incubated for 16 to 20 hrs by CLSI based broth liquid microdilution method; type: functional; conditions: time 16-20 hrs
[15] = Microsomal stability in rat liver microsomes assessed as parent compound remaining pretreated with compound upto 60 mins followed by NADPH addition and measured after 60 mins by LC/MS analysis; type: ADME, Microsome; conditions: time < 120 min; for remaining at 2 h: liver microsomes, read-out: Stability
[16] = Stability in dog plasma assessed as parent compound remaining at 37 degreeC measured upto 60 mins by HPLC analysis; type: ADME, cell-free, Canis lupus familiaris; conditions: read-out: Stability
[17] = Clearance in Sprague-Dawley rat at 1 mg/kg, iv measured upto 24 hrs by LC-MS analysis; type: ADME, organism-based; conditions: in vivo
Staphylococcus aureus [18] = experiment: Antibacterial activity against Staphylococcus aureus ATCC29213 assessed as inhibition of bacterial growth incubated for 16 to 20 hrs by CLSI based broth liquid microdilution method; type: functional; conditions: time 16-20 hrs
[19] = Microsomal stability in human liver microsomes assessed as parent compound remaining pretreated with compound upto 60 mins followed by NADPH addition and measured after 60 mins by LC/MS analysis; type: ADME, Microsome; conditions: time < 120 min; for remaining at 2 h: liver microsomes, read-out: Stability
[20] = Microsomal stability in dog liver microsomes assessed as elimination half life pretreated with compound upto 60 mins followed by NADPH addition and measured after 60 mins by LC/MS analysis; type: ADME, Canis lupus familiaris, Microsome; conditions: time < 120 min; for half-life: liver microsomes, read-out: beta t1/2
[21] = Elimination half life in Sprague-Dawley rat at 1 mg/kg, iv measured upto 24 hrs by LC-MS analysis; type: ADME, organism-based; conditions: in vivo, read-out: beta t1/2 (converted)
Staphylococcus aureus [22] = experiment: Antibacterial activity against linezolid-resistant Staphylococcus aureus assessed as inhibition of bacterial growth incubated for 16 to 20 hrs by CLSI based broth liquid microdilution method; type: functional; conditions: time 16-20 hrs
[23] = AUC (0 to t) in ICR mouse at 1 mg/kg, iv measured upto 24 hrs by LC-MS analysis; type: ADME, organism-based; conditions: in vivo
Staphylococcus aureus [24] = experiment: Antibacterial activity against Linezolid-resistant Staphylococcus aureus infected in systemic infection SPF-kunming mouse model assessed as survival rate at 10 to 40 mg/kg, IG measured 3 days after infection; type: functional, organism-based; conditions: dose 10-40 mg/kg
[25] = Apparent permeability across apical to basolateral side in human Caco-2 cells; type: ADME, cell-based
[26] = Efflux ratio of apparent permeability across […] side in human Caco-2 cells; type: ADME, cell-based
[27] = AUC (0 to t) in ICR mouse at 10 mg/kg, IG measured upto 24 hrs by LC-MS analysis; type: ADME, organism-based; conditions: in vivo, po
[28] = Cmax in ICR mouse at 10 mg/kg, IG measured upto 24 hrs by LC-MS analysis; type: ADME, organism-based; conditions: in vivo, po
[29] = Stability in simulated gastric acid assessed as compound remaining at pH 1.3 measured at 2 hrs; type: ADME; conditions: read-out: Stability
[30] = Stability in simulated gastric acid assessed as compound remaining at pH 1.3 measured at 0.5 hrs; type: ADME; conditions: read-out: Stability
Staphylococcus aureus [31] = experiment: Antibacterial activity against Linezolid-resistant Staphylococcus aureus infected in systemic infection IG dosed SPF-kunming mouse model assessed as survival rate measured every day for 7 days; type: functional, organism-based; conditions: dose 2.5-40 mg/kg, time 7.0 day
[32] = biological target: T1, Amine oxidase [flavin-containing] A (Homo sapiens, UniProt P21397); experiment: Inhibition of MAO-A (unknown origin) preincubated with compound for 15 mins followed by substrate addition and measured after 60 mins by luminescence based microplate reader analysis; type: toxicity
T1 sequence (P21397 whole entry): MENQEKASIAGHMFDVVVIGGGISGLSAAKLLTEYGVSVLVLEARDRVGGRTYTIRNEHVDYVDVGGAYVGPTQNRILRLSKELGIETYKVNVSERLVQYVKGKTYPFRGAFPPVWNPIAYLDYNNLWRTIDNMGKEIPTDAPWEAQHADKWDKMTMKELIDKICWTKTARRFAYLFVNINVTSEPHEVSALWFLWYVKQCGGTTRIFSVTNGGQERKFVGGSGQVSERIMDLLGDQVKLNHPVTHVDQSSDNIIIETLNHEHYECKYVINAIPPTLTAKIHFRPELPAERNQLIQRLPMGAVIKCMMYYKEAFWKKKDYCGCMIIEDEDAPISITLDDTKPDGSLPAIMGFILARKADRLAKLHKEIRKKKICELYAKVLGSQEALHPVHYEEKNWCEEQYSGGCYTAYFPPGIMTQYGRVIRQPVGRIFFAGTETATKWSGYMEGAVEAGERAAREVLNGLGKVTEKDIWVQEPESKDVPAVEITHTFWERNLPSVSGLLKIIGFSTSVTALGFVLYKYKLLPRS

Staphylococcus aureus [33] = experiment: Antibacterial activity against methicillin-resistant Staphylococcus aureus assessed as inhibition of bacterial growth; type: functional

SMILES	fraction unbound at 6 h [1]	MIC (Staphylococcus aureus [2])	Cmax [3]	remaining at 2 h [4]	fraction unbound at 6 h [5]	MIC (Staphylococcus aureus [6])	AUC(0-t) at 24 h [7]	remaining at 1 h [8]	IC50 (Cytochrome P450 3A4)	Tmax [10]	microsomal CLint [11]	IC50 at 48 h [12]	microsomal CLint [13]	Vd [14]	MIC (Enterococcus faecalis)	remaining at 2 h [15]	remaining at 1 h [16]	clearance [17]	MIC (Staphylococcus aureus [18])	half-life [21]	other results
O=C1O[C@@H](CO)CN1c1ccc(-c2ccc(/C=N/N3CCS(=O)(=O)CC3)nc2)c(F)c1	0.284	0.25 µg/mL (≈ 0.557 µM)	597 ng/mL	98.8%	0.223	0.125 µg/mL (≈ 0.279 µM)	2120 ng·h/mL	106%	> 30 µM	0.42 h	2.07 µL/min/mg	> 30 µM	2.39 µL/min/mg	0.73 L/kg	0.5 µg/mL (≈ 1.11 µM)	92.8%	107%	14.7 mL/min/kg	0.25 µg/mL (≈ 0.557 µM)	0.72 h	Stability [9]: 133%; remaining at 2 h [19]: 98.7%; beta t1/2 ([20]; microsomes, 2 h): 98.85 h; MIC (Staphylococcus aureus [22]): 0.25 µg/mL (≈ 0.557 µM)
O=C1O[C@@H](CO)CN1c1ccc(-c2ccc(/C=N/N3CCCCC3)nc2)c(F)c1	0.028	0.03 µg/mL (≈ 0.0753 µM)	1380 ng/mL	59%	0.013	0.03 µg/mL (≈ 0.0753 µM)	7170 ng·h/mL	104%	> 30 µM	1.67 h	14.5 µL/min/mg	> 30 µM	17.2 µL/min/mg	1.06 L/kg	0.5 µg/mL (≈ 1.25 µM)	63.3%	100%	11.6 mL/min/kg	0.03 µg/mL (≈ 0.0753 µM)	1.23 h	AUC(0-t) at 24 h [23]: 1190 ng·h/mL; Stability [9]: 123%; Activity (Staphylococcus aureus [24]): inactive; Stability ([19]; microsomes, 2 h): 71.7%; half-life [20]: 1.78 h; Papp A→B [25]: 11.1 ×10⁻⁶ cm/s; Ratio [26]: 1.5; AUC(0-t) at 24 h [27]: 4740 ng·h/mL; Cmax [28]: 817 ng/mL; MIC (Staphylococcus aureus [22]): 0.03 µg/mL (≈ 0.0753 µM)
CC(C)N/N=C/c1ccc(-c2ccc(N3C[C@H](CO)OC3=O)cc2F)cn1	0.115	0.03 µg/mL (≈ 0.0806 µM)	2480 ng/mL	66%	0.074	0.03 µg/mL (≈ 0.0806 µM)	10100 ng·h/mL	102%	16.5 µM	1.17 h	12.6 µL/min/mg	> 30 µM	13.7 µL/min/mg	0.72 L/kg	1 µg/mL (≈ 2.69 µM)	–	108%	10.3 mL/min/kg	0.06 µg/mL (≈ 0.161 µM)	0.98 h	AUC(0-t) at 24 h [23]: 475 ng·h/mL; remaining at 2 h [29]: 87.1%; remaining at 1 h [9]: 113%; Stability ([15]; microsomes, 2 h): 70.2%; remaining at 2 h [19]: 85.8%; remaining at 0.5 h [30]: 96.7%; half-life [20]: 3.37 h; AUC(0-t) at 24 h [27]: 613 ng·h/mL; Cmax [28]: 479 ng/mL; MIC (Staphylococcus aureus [22]): 0.03 µg/mL (≈ 0.0806 µM)
O=C1O[C@@H](CO)CN1c1ccc(-c2ccc(/C=N/N3CCOCC3)nc2)c(F)c1	0.215	0.125 µg/mL (≈ 0.312 µM)	2320 ng/mL	93.3%	0.144	0.06 µg/mL (≈ 0.15 µM)	8310 ng·h/mL	103%	> 30 µM	1.33 h	2.3 µL/min/mg	> 30 µM	3.25 µL/min/mg	0.81 L/kg	0.5 µg/mL (≈ 1.25 µM)	93.4%	115%	14 mL/min/kg	0.06 µg/mL (≈ 0.15 µM)	0.8 h	AUC(0-t) at 24 h [23]: 2640 ng·h/mL; Stability [9]: 125%; Activity (Staphylococcus aureus [31]): Dose-Dependent Effect; remaining at 2 h [19]: 66.2%; IC50 [32]: 5.64 µM; half-life [20]: 19.2 h; Papp A→B [25]: 36.7 ×10⁻⁶ cm/s; Ratio [26]: 0.61; AUC(0-t) at 24 h [27]: 29300 ng·h/mL; Cmax [28]: 4810 ng/mL; MIC (Staphylococcus aureus [22]): 0.125 µg/mL (≈ 0.312 µM)
CC(=O)NC[C@H]1CN(c2ccc(N3CCOCC3)c(F)c2)C(=O)O1 [LINEZOLID]	0.745	–	4830 ng/mL	99.4%	0.716	–	13000 ng·h/mL	107%	> 30 µM	0.5 h	2.22 µL/min/mg	> 30 µM	0.446 µL/min/mg	0.75 L/kg	–	93.9%	110%	24.7 mL/min/kg	–	0.41 h	MIC (Staphylococcus aureus [33]): 1 µg/mL (≈ 2.96 µM); AUC(0-t) at 24 h [23]: 794 ng·h/mL; remaining at 1 h [9]: 110%; remaining at 2 h [19]: 102%; IC50 [32]: 20 µM; half-life [20]: 34.6 h; AUC(0-t) at 24 h [27]: 24000 ng·h/mL; Cmax [28]: 10000 ng/mL
